In brackets after ≈: the same amount, converted by molar mass. Where two headings read alike, the source gives them in different places.
What was measured:
[1] = system: CorV.4U cardiomyocytes (hiPSC-CMs); test: Protection of CorV.4U cardiomyocytes from H2O2 or menadione (luminescent cell viability assay, human cardiac troponin assay); type: cell-based; conditions: for EC50: Homo sapiens, Cardiomyocyte
Text: To substantiate the hypothesis that pharmacological inhibition of MAP4K4 would confer resistance to cell death in human cardiomyocytes, cytoprotection was next assessed using hiPSC-CMs.

Cyp = Cyp Inhibition; type: in vitro ADME
[2] = target: human MAP4K4 kinase domain (Homo sapiens (Human), UniProt O95819); test: MAP4K4 kinase activity, CisBio HTRF Transcreener ADP assay; type: biochemical; conditions: read-out: MAP4K4, IC50
human MAP4K4 kinase domain, sequence (O95819 25-289): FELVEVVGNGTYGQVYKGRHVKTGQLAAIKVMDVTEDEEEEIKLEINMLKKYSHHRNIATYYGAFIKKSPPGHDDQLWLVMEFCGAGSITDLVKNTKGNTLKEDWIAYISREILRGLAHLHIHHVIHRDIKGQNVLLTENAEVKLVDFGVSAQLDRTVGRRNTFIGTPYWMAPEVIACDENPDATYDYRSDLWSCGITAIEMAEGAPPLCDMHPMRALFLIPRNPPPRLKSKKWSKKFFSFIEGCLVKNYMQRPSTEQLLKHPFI
Method in brief: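 Kinase activity followed by HTRF Transcreener ADP detection: enzyme-generated ADP competes with d2-labelled ADP for Eu3+-cryptate anti-ADP antibody, read ratiometrically at 665/620 nm. IC50 values reported as categories.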

[3] = Plasma protein binding (PPB); type: in vitro ADME; conditions: for fraction unbound: plasma
[4] = system: mice undergoing experimental myocardial infarction; test: Experimental myocardial infarction in mice (infarct size, TUNEL staining); type: in vivo
Experimental: To test if target validation and compound development in hiPSC-CMs might predict success in a whole-animal context, mice undergoing experimental myocardial infarction were treated with Ex-58 or the vehicle control (FIG. 9). […] Treatment was begun either 20 min prior to ischemia (FIG. 9D), or 1 h after reperfusion injury (FIG. 9E, F), the latter having greater relevance to potential clinical benefits.

Cyp 2C9 = Cyp 2C9 (Homo sapiens (Human), UniProt P11712); test: Cyp Inhibition: 2C9; type: in vitro ADME
Cyp 2C9, sequence (P11712 whole entry): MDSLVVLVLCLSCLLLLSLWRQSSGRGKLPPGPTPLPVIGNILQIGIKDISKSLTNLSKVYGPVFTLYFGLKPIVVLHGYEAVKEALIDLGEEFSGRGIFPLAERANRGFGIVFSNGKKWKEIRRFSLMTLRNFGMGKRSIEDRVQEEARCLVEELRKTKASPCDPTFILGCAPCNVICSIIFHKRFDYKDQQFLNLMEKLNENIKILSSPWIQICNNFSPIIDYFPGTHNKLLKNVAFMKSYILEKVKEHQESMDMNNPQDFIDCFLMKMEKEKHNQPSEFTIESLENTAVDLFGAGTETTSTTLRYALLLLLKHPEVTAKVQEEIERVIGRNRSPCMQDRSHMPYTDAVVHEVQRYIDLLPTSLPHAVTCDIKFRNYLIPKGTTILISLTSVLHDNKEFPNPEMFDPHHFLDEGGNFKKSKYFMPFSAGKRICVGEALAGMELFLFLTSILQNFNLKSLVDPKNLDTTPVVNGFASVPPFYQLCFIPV

H9c2 cardiomyocytes = test: Protection of H9c2 cardiomyocytes; type: cell-based
[5] = Resistance to degradation in hepatocyte microsomes (Heps); type: in vitro ADME
Formulated solubility = type: physicochemical

O=c1[nH]cnc2c1c(-c1ccc(OCC3(CO)COC3)cc1)cn2-c1ccccc1 [Ex-54]
Protection in human iPSC-derived ventricular cardiomyocytes, H202, efficacy relative to Ex-58 ([1]; H2O2 as death trigger, relative to Ex-58): (0.9)
EC50 ([1]; H2O2 as death trigger, read-out: Protection in human iPSC-derived ventricular cardiomyocytes, EC50 H202): 469 nM
EC50 ([1]; read-out: EC50, protection of human cardiomyocytes): < 1000 nM
Cyp Inhibition (Cyp): >10 µM
IC50 [2]: 4 nM
plasma protein binding (PPB) relative to Ex-58 [3]: superior
fraction unbound ([3]; human, read-out: Human PPB % (converted)): 0.03
fraction unbound ([3]; mouse, read-out: Mouse PPB % (converted)): 0.03
In vivo efficacy (infarct size/area at risk), reduction ([4]; mice, experimental myocardial infarction): 53% reduction
infarct size in mice (in words) ([4]; mouse, in vivo): Reduction of infarct size
Cyp Inhibition 2C9 (Cyp 2C9): (2C9 8 μM)
Protection in H9c2 cardiomyocytes, efficacy relative to Ex-58 (H9c2 cardiomyocytes; H9c2 cardiomyocytes, relative to Ex-58): (0.3)
EC50 (H9c2 cardiomyocytes; Rattus norvegicus, H9c2): 199 nM
resistance to degradation in hepatocyte microsomes (Heps) relative to Ex-58 [5]: superior
Human Heps ([5]; human): 5
Mouse Heps ([5]; mouse): 25
Pig Heps ([5]; pig): 6
Rat Heps ([5]; rat): 3
solubility (Formulated solubility): 300 µg/mL (≈ 744 µM)

Reference: US11795169B2, “MAP4K4 inhibitors” (IMPERIAL COLLEGE INNOVATIONS LIMITED, priority 2017, dated 2023)
